Measured values taken from patent US20160061820A1, “IN VITRO BILIARY EXCRETION ASSAY” (HUREL CORPORATION, priority 2014, published 2016).
Read-outs that look alike come from different tables or passages of the source. Values belong to the compound of their own block, whether it stands above or below them.

Key:
bile canaliculi = test: Disruption of canaliculi, CDFDA staining (Example 3); format: cell-based, human; details: 5 uM CDFDA with 10 uM LatA, 20 min
Description: In the second method, the cultures were exposed to buffer containing latranculin A (LatA). The LatA functions to disrupt microfilament organization, a key step in tight junction formation, which allows bile present in the canaliculi to escape. Cells were first washed twice in HBSS buffer with Ca+. Cells were then incubated with 5 uM CDFDA in HBSS buffer with Ca+ and 10 uM LatA for 20 min. Cells were then washed two times in HBSS buffer with Ca+.

[1] = test system: cryopreserved human hepatocytes in sandwich culture; details: cited from earlier work
in vitro [2] = details: hepatocytes
Description: (§1) The single well method of assessing biliary clearance of the invention was used.
(§2) A coculture was exposed to each tested compound in culture media at the indicated concentration for 20 minutes. The media was then removed (collection #1) and stored for analysis of remaining compound. The cultures were washed twice with buffer solution (collections #2 and #3) and each wash solution was stored for analysis of remaining taurcholate. […] This releases taurcholate accumulated in the bile of the canaliculi. At the end of the incubation period the culture media was collected (collection #4). The cells were then exposed to deionized water which functions to disrupt the cellular membrane and release the compound accumulated in the cellular compartment (collection #5). Because any compound present in the canaliculi was already collected in collection #4, collection #5 contains any compound present in the cell but not including any present in the canaliculi.
(§3) In teach figure the measured amount of compound in bile and the measured amount of compound in the cytoplasm are presented together as two parts of a single bar on the left side of the figure. The measured value for the bile is also shown as a bar on the right side of the figure. Comparing the height of the right bar (bile) to the height of the composite left bar (total of cytoplasm+bile) allows visulation of the portion of the compound that accumulated in the bile. […] Equation 2 was used to calculate the BEI for each compound in this system. The data were used to calculate the Biliary Clearance (Equation 1) and BEI (Equation 2) for each tested compound.

in vitro [3] = details: rat, hepatocytes
Description: as §1
(§4) The media was then removed (collection #1) and stored for analysis of remaining compound. […] At the end of the incubation period the culture media was collected (collection #4). The cells were then exposed to deionized water which functions to disrupt the cellular membrane and release the compound accumulated in the cellular compartment (collection #5). Because any compound present in the canaliculi was already collected in collection #4, collection #5 contains any compound present in the cell but not including any present in the canaliculi. […] The data is presented in FIG. 9-13 using the same format as used in FIGS. 4-8.
(§5) Equation 2 was used to calculate the BEI for each compound in this system.

[4] = test system: cultured human hepatocytes; test: in vitro
Description: as §1, §2, §3

cultured rat hepatocytes = test: in vitro
Description: as §1, §4, §5

[5] = Lundquist (2014); cited from earlier work
[6] = test system: primary human hepatocytes grown in a hepatocyte-stromal cell coculture
Description: (§6) Accumulation in the bile and accumulation in the cell were measured separately in a single well of a coculture plate. The measured values for bile accumulation and cell accumulation are shown as separately shaded portions of a single bar. The error bars represent a single standard deviation.
as §6, with “FIG. 18 compares the results of three independent experiments measuring biliary uptake of pravastatin by primary human hepatocytes grown in a hepatocyte-stromal cell coculture. Accumulation” for “Accumulation”

[7] = Bi et al. (2006), two culture method

SMILES: C/C1=C/C(=O)O[C@@H]2C[C@@H](CC[C@H](C)/C=C\C=C\CC1)O[C@@](O)([C@@H]1CSC(=O)N1)C2 [LatA, latrunculin A]
CDA staining of canaliculi (bile canaliculi): no CDA staining was apparent

microsomal CLint (in vitro [2]; human): 0.4 µL/min/mg
microsomal CLint (in vitro [3]): 0.31 ± 0.02 µL/min/mg
SMILES: C[C@H]1O[C@@H](O[C@H]2[C@@H](O)C[C@H](O[C@H]3[C@@H](O)C[C@H](O[C@H]4CC[C@@]5(C)[C@H](CC[C@@H]6[C@@H]5C[C@@H](O)[C@]5(C)[C@@H](C7=CC(=O)OC7)CC[C@]65O)C4)O[C@@H]3C)O[C@@H]2C)C[C@H](O)[C@@H]1O [digoxin]
Uptake Rate [1, 7]: 0.7-1.5 pmol/min/mg protein

microsomal CLint [4]: 0.3 µL/min/mg
Rat In Vitro PK Intrinsic CLint, biliary (cultured rat hepatocytes; rat, hepatocytes): 2.7 ± 0.1 μl/min/mg protein
SMILES: C[C@]12CC[C@@H]3c4ccc(O)cc4CC[C@H]3[C@@H]1CC[C@@H]2O[C@@H]1O[C@H](C(=O)O)[C@@H](O)[C@H](O)[C@H]1O [estradiol-glucuronide]
Biliary Excretion Index (BEI) [1, 7]: 37%
Uptake Rate [1]: 2.2 pmol/min/mg protein
microsomal CLint [1]: 1.8 µL/min/mg

microsomal CLint (in vitro [2]; human): 0.38 µL/min/mg
microsomal CLint (in vitro [3]): 0.29 ± 0.02 µL/min/mg
SMILES: CC[C@H](C)C(=O)O[C@H]1C[C@H](O)C=C2C=C[C@H](C)[C@H](CC[C@@H](O)C[C@@H](O)CC(=O)O)[C@H]21 [pravastatin]

microsomal CLint (in vitro [2]; human): 6 µL/min/mg
Fold Difference (cultured rat hepatocytes; rat): 0.6
microsomal CLint (in vitro [3]): 3.5 ± 0.3 µL/min/mg
SMILES: CC(C)c1nc(N(C)S(C)(=O)=O)nc(-c2ccc(F)cc2)c1/C=C/[C@@H](O)C[C@@H](O)CC(=O)O [rosuvastatin]
Biliary Excretion Index (BEI) [1, 7]: 43-58%
Uptake Rate [1, 7]: 15-26 pmol/min/mg protein
Rat In Vivo PK In Vivo CLbiliary [5]: 48.0 ± 10.8 mL/min/kg

SMILES: C[C@H](CCC(=O)NCCS(=O)(=O)O)[C@H]1CC[C@H]2[C@@H]3[C@H](O)C[C@@H]4C[C@H](O)CC[C@]4(C)[C@H]3C[C@H](O)[C@]12C [taurocholate, taurocholic acid]
microsomal CLint (in vitro [2]): 23 µL/min/mg
BEI (cultured rat hepatocytes; rat hepatocyte coculture, compound 2 uM (pravastatin 5 uM), 20 min, latrunculin 5 uM 30 min): 60%
Rat In Vitro PK Predicted CLbiliary (cultured rat hepatocytes; scaled from Clint,bile with 200 mg protein/g liver and 40 g liver/kg): 67.1 ± 4.8 mL/min/kg
Bile accumulation, Mean ([6]; Exp. 1): 541.90
Bile accumulation, Mean ([6]; Exp. 2): 556.08
Bile accumulation, Mean ([6]; Exp. 3): 543.31
